This assay concerns the target T1, human FXR (NR1H4) (Homo sapiens, UniProt Q96RI1).
T1 construct: host or cells: CHO (Chinese hamster ovary) reporter cells
T1 sequence (Q96RI1 1-486): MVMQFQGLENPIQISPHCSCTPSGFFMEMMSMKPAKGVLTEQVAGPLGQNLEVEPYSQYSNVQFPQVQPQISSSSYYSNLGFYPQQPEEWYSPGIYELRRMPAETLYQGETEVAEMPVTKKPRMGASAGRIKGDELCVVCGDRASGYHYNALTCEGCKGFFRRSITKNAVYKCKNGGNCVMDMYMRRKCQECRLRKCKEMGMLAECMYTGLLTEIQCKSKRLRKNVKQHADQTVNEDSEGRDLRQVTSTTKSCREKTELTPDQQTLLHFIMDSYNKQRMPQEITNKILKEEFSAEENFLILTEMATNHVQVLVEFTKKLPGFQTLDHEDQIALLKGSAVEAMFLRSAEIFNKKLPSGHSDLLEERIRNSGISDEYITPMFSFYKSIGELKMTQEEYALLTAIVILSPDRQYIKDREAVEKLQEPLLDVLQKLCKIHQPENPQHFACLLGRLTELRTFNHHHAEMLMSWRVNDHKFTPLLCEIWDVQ
The experiment in a line: Human FXR (NR1H4) Assay: Gal4 promoter driven luciferase reporter transactivation in CHO cells (Indigo Bioscience kit IB00601). For Efficacy (%): efficacy normalized to CDCA set as 100%. It is filed as cell-based. From the text: Human FXR (NR1H4) Assay Determination of a ligand mediated Gal4 promoter driven transactivation to quantify ligand binding mediated activation of FXR. FXR Reporter Assay kit purchased from Indigo Bioscience (Catalogue number: IB00601) to determine the potency and efficacy of compound developed by Enanta that can induce FXR activation. The principle application of this reporter assay system is to quantify functional activity of human FXR. The assay utilizes non-human mammalian cells, CHO (Chinese hamster ovary) cells engineered to express human NR1H4 protein (referred to as FXR). Reporter cells also incorporate the cDNA encoding beetle luciferase which catalyzes the substrates and yields photon emission. Luminescence intensity of the reaction is quantified using a plate-reading luminometer, Envision. Reporter Cells include the luciferase reporter gene functionally linked to an FXR responsive promoter. Thus, quantifying changes in luciferase expression in the treated reporter cells provides a sensitive surrogate measure of the changes in FXR activity. […] The assay is according to the manufacturer's instructions. In brief, the assay was performed in white, 96 well plates using final volume of 100 ul containing cells with different doses of compounds. Retrieve Reporter Cells from −80° C. storage. Perform a rapid thaw of the frozen cells by transferring a 10 ml volume of 37° C. cell recovery medium into the tube of frozen cells. Recap the tube of Reporter Cells and immediately place it in a 37° C. water bath for 5-10 minutes. Retrieve the tube of Reporter Cell Suspension from the water bath. Sanitize the outside surface of the tube with a 70% alcohol swab, and then transfer it into the cell culture hood. Dispense 90 μl of cell suspension into each well of the 96-well Assay Plate. Transfer the plate into 37° C. incubator, allowing the cells adherent to the bottom of the well. Dilute compounds in Dilution Plate (DP), and administrate to cells at Assay Plate (AP). DMSO content of the samples was kept at 0.2%. Cells were incubated for additional 22 hours before luciferase activities were measured. Thirty minutes before intending to quantify FXR activity, remove Detection Substrate and Detection Buffer from the refrigerator and place them in a low-light area so that they may equilibrate to room temperature. Remove the plate's lid and discard all media contents by ejecting it into an appropriate waste container. Gently tap the inverted plate onto a clean absorbent paper towel to remove residual droplets. Cells will remain tightly adhered to well bottoms. Add 100 ul of luciferase detection reagent to each well of the assay plate. Allow the assay plate to rest at room temperature for at least 5 minutes following the addition of LDR. Set the instrument (Envision) to perform a single 5 second “plate shake” prior to reading the first assay well. Read time may be 0.5 second (500 mSec) per well.

The mark [1] stands for this setting: Human FXR (NR1H4) reporter assay, potency ranges.

Read-outs that look alike come from different tables or passages of the source.

In the case of `O=C(O)c1ccc2nc(N3[C@@H]4CC[C@H]3C[C@H](NCc3c(-c5c(Cl)cccc5Cl)noc3C3CC3)C4)sc2c1` [Example 178], the Emax (CHO; read-out: Efficacy (%)) was 108%. The same molecule came in with an EC50 under setting [1] of over 1000 nM.
On the same counts, the results for `COC(=O)c1ccc2nc(N3C4CCC3CC(N(C)Cc3c(-c5c(Cl)cccc5Cl)noc3C3CC3)C4)sc2c1` (stereo not drawn) [Example 179] are 148% and 100 to 1000 nM.
On the same counts, the results for `CCOC(=O)c1ccc2nc(NC3CCN(Cc4c(-c5c(Cl)cccc5Cl)noc4C4CC4)CC3)sc2c1` [Example 183] are 119% and over 1000 nM.
Taken in the same sequence, the figures for `CN(Cc1c(-c2c(Cl)cccc2Cl)noc1C1CC1)C1CCN(c2nc3ccc(C(=O)O)cc3s2)CC1` [Example 186] were 45% and over 1000 nM.
In the case of `COC(=O)c1cccc(N2CCN(Cc3c(-c4c(Cl)cccc4Cl)noc3C3CC3)CC2)c1` [Example 187], the Emax (CHO, read-out: Efficacy (%)) amounted to 64%. Under setting [1], this molecule yielded an EC50 of over 1000 nM.
Turning to `O=C(O)c1cccc(N2CCN(Cc3c(-c4c(Cl)cccc4Cl)noc3C3CC3)CC2)c1` [Example 188], the Emax (CHO; read-out: Efficacy (%)) was determined as 15%. Besides, under setting [1], the EC50 is over 1000 nM.
On the same counts, the results for `COC(=O)c1cc(OC(F)F)c2nc(N3C4CCC3CC(NCc3c(-c5c(Cl)cccc5Cl)noc3C3CC3)C4)sc2c1` (stereo not drawn) [Example 189] are 73% and 1 to 100 nM.
Taken in the same sequence, the figures for `O=C(O)c1cc(OC(F)F)c2nc(N3[C@@H]4CC[C@H]3C[C@@H](NCc3c(-c5c(Cl)cccc5Cl)noc3C3CC3)C4)sc2c1` [Example 190, 2-((1R,3r,5S)-3-(((5-cyclopropyl-3-(2,6-dichlorophenyl)isoxazol-4-yl)methyl)amino)-8-azabicyclo[3.2.1]octan-8-yl)-4-(difluoromethoxy)benzo[d]thiazole-6-carboxylic acid] were 96% and under 1 nM.
On the same counts, the results for `Cc1cc2nc(N3C4CCC3CC(NCc3c(-c5c(Cl)cccc5Cl)noc3C3CC3)C4)sc2cc1C(=O)O` (stereo not drawn) [Example 194] are 81% and under 1 nM.
As for `Cc1c(C(=O)O)ccc2nc(N3C4CCC3CC(NCc3c(-c5c(Cl)cccc5Cl)noc3C3CC3)C4)sc12` (stereo not drawn) [Example 196], the Emax (CHO; read-out: Efficacy (%)) worked out at 83.5%. Moreover, the EC50 under setting [1] was 1 to 100 nM.
For `COC(=O)c1ccc2nc(N3C4CCC3CC(NCc3c(-c5c(Cl)cccc5Cl)noc3C3CC3)C4)c(OC)nc2c1` (stereo not drawn) [Example 197], the Emax (CHO; read-out: Efficacy (%)) is 115%. This molecule also came in with an EC50 under setting [1] of 100 to 1000 nM.
Taken in the same sequence, the figures for `COc1nc2cc(C(=O)O)ccc2nc1N1C2CCC1CC(NCc1c(-c3c(Cl)cccc3Cl)noc1C1CC1)C2` (stereo not drawn) [Example 198] were 140% and 1 to 100 nM.
On to `COC(=O)c1ccc2nc(N3C4CCC3CC(NCc3c(-c5c(Cl)cccc5Cl)noc3C3CC3)C4)c(Cl)nc2c1` (stereo not drawn) [Example 199], for which, where the note is “CHO; read-out: Efficacy (%)”, the Emax was 58%. This molecule also displayed an EC50 under setting [1] of 100 to 1000 nM.
For the molecule `O=C(NCCS(=O)(=O)O)c1cc(F)c2nc(N3C4CCC3CC(NCc3c(-c5c(Cl)cccc5Cl)noc3C3CC3)C4)sc2c1` (stereo not drawn) [Example 200-1], for the setting “CHO; read-out: Efficacy (%)”, the Emax came out at 10%. Under setting [1], the EC50 fell in the range of 1 to 100 nM.
Turning to `COC(=O)c1cc(OC(C)C)c2nc(N3CCC(NCc4c(-c5c(Cl)cccc5Cl)noc4C4CC4)CC3)sc2c1` [Example 200-3], where the note is “CHO; read-out: Efficacy (%)”, the Emax was determined as 35%. The EC50 under setting [1] lay within 100 to 1000 nM.
On the same counts, the results for `CC(C)Oc1cc(C(=O)O)cc2sc(N3CCC(NCc4c(-c5c(Cl)cccc5Cl)noc4C4CC4)CC3)nc12` [Example 200-4] are 106% and 1 to 100 nM.
Taken in the same sequence, the figures for `COC(=O)c1cc(F)c2nc(N3CCC(NCc4c(-c5c(Cl)cccc5Cl)noc4C4CC4)CC3)sc2c1` [Example 200-5] were 72% and 100 to 1000 nM.
Taken in the same sequence, the figures for `O=C(O)c1cc(F)c2nc(N3CCC(NCc4c(-c5c(Cl)cccc5Cl)noc4C4CC4)CC3)sc2c1` [Example 200-6] were 86.5% and 1 to 100 nM.
On to `COC(=O)c1cc2sc(N3C4CCC3CC(NCc3c(-c5c(Cl)cccc5Cl)noc3C3CC3)C4)nc2cc1OC` (stereo not drawn) [Example 200-7], for which the Emax (CHO; read-out: Efficacy (%)) came to 74.5%. The EC50 under setting [1] fell in the range of 1 to 100 nM.
On the same counts, the results for `COc1cc2nc(N3C4CCC3CC(NCc3c(-c5c(Cl)cccc5Cl)noc3C3CC3)C4)sc2cc1C(=O)O` (stereo not drawn) [Example 200-8] are 73.5% and under 1 nM.
With `CCOc1cc(C(=O)OC)cc2sc(N3C4CCC3CC(NCc3c(-c5c(Cl)cccc5Cl)noc3C3CC3)C4)nc12` (stereo not drawn) [Example 200-9], the Emax (CHO; read-out: Efficacy (%)) amounted to 81%. Also, under setting [1], the EC50 was in the range of 1 to 100 nM.
On the same counts, the results for `CCOc1cc(C(=O)O)cc2sc(N3C4CCC3CC(NCc3c(-c5c(Cl)cccc5Cl)noc3C3CC3)C4)nc12` (stereo not drawn) [Example 200-10] are 92.5% and under 1 nM.
Taken in the same sequence, the figures for `COc1cc(C(=O)NCC(=O)O)cc2sc(N3C4CCC3CC(NCc3c(-c5c(Cl)cccc5Cl)noc3C3CC3)C4)nc12` (stereo not drawn) [Example 200-11] were 75% and 1 to 100 nM.
Taken in the same sequence, the figures for `COc1cc(C(=O)NCCS(=O)(=O)O)cc2sc(N3C4CCC3CC(NCc3c(-c5c(Cl)cccc5Cl)noc3C3CC3)C4)nc12` (stereo not drawn) [Example 200-12] were 16.5% and 1 to 100 nM.
Consider `COC(=O)c1cc(OC(C)C)c2nc(N3C4CCC3CC(NCc3c(-c5c(Cl)cccc5Cl)noc3C3CC3)C4)sc2c1` (stereo not drawn) [Example 200-13], for which the Emax (CHO; read-out: Efficacy (%)) came to 96%. In addition, the EC50 under setting [1] is under 1 nM.
Taken in the same sequence, the figures for `CC(C)Oc1cc(C(=O)O)cc2sc(N3C4CCC3CC(NCc3c(-c5c(Cl)cccc5Cl)noc3C3CC3)C4)nc12` (stereo not drawn) [Example 200-14] were 93.5% and under 1 nM.
Taken in the same sequence, the figures for `COC(=O)c1cc2sc(N3C4CCC3CC(NCc3c(-c5c(Cl)cccc5Cl)noc3C3CC3)C4)nc2cc1F` (stereo not drawn) [Example 200-15] were 75.8% and 1 to 100 nM.
On the same counts, the results for `O=C(O)c1cc2sc(N3C4CCC3CC(NCc3c(-c5c(Cl)cccc5Cl)noc3C3CC3)C4)nc2cc1F` (stereo not drawn) [Example 200-16] are 109% and 1 to 100 nM.
Turning to `COC(=O)c1cnc2nc(N3C4CCC3CC(NCc3c(-c5c(Cl)cccc5Cl)noc3C3CC3)C4)sc2n1` (stereo not drawn) [Example 200-17], the Emax (CHO; read-out: Efficacy (%)) stood at 51.5%. Under setting [1], the EC50 lay in the range of 1 to 100 nM.
On the same counts, the results for `O=C(O)c1cnc2nc(N3C4CCC3CC(NCc3c(-c5c(Cl)cccc5Cl)noc3C3CC3)C4)sc2n1` (stereo not drawn) [Example 200-18] are 91.3% and 1 to 100 nM.
Taken in the same sequence, the figures for `COC(=O)c1cc2sc(N3C4CCC3CC(NCc3c(-c5c(Cl)cccc5Cl)noc3C3CC3)C4)nc2cc1Br` (stereo not drawn) [Example 200-19] were 50.5% and 1 to 100 nM.
Taken in the same sequence, the figures for `COC(=O)c1ccc2nc(N3C4CCC3CC(NCc3c(-c5c(Cl)cccc5Cl)noc3C3CC3)C4)sc2c1Br` (stereo not drawn) [Example 200-21] were 58% and 1 to 100 nM.
With `COC(=O)c1cc2sc(N3C4CCC3CC(NCc3c(-c5c(Cl)cccc5Cl)noc3C3CC3)C4)nc2cc1-c1ccccc1` (stereo not drawn) [Example 200-23], under “CHO; read-out: Efficacy (%)”, the Emax was 76.5%. The EC50 under setting [1] lay within 1 to 100 nM.
For the molecule `O=C(O)c1cc2sc(N3C4CCC3CC(NCc3c(-c5c(Cl)cccc5Cl)noc3C3CC3)C4)nc2cc1-c1ccccc1` (stereo not drawn) [Example 200-24], the Emax (CHO; read-out: Efficacy (%)) amounted to 96.2%. This molecule showed an EC50 under setting [1] of 1 to 100 nM.
On the same counts, the results for `COC(=O)c1ccc2nc(N3C4CCC3CC(NCc3c(-c5c(Cl)cccc5Cl)noc3C3CC3)C4)sc2c1-c1ccccc1` (stereo not drawn) [Example 200-25] are 58.5% and 1 to 100 nM.
In the case of `COC(=O)c1cc2sc(N3C4CCC3CC(NCc3c(-c5c(Cl)cccc5Cl)noc3C3CC3)C4)nc2c2ccccc12` (stereo not drawn) [Example 200-27], the Emax (CHO; read-out: Efficacy (%)) turned out to be 28.3%. The EC50 under setting [1] was in the range of 1 to 100 nM.

These data come from patent publication US10450306B2, “Isoxazole analogs as FXR agonists and methods of use thereof” (Enanta Pharmaceuticals, Inc., priority 2016, dated 2019).
